Assay results from patent US5223526A, “Pyrazole carboxanilide fungicides and use” (Monsanto Company, priority 1992, dated 1993).

What was measured:
succinate dehydrogenase = target: T1, succinate dehydrogenase (Botrytis cinerea, UniProt A0A384J5E4+A0A384J8V8+A0A384JHJ5); assay: Enzyme inhibition: succinate dehydrogenase activity in Botrytis cinerea mitochondria (DCPIP reduction); assay type: biochemical; conditions: concentration required to inhibit the rate of DCPIP reduction by 50%; Botrytis cinerea isolate Nick mitochondria; read-out: I50 (μM conc.)
T1 construct: succinate-DCPIP reductase assay with KCN
Method: Mitochondria were isolated by a method adapted from G.A. White [Biochem. Biophys. Res. Commun. 44: 1212, 1971]. Twenty to thirty grams of Botrytis cinerea isolate Nick were resuspended in 250 mL 0.25M sucrose, 5mM Na4 EDTA, pH 7.0 (+) 0.15% (w/v) bovine serum albumin (BSA) and placed in a Bead Beater chamber (Biospec Products, Bartlesville, Ok.). Zirconium oxide beads (0.5mm) were added to finish filling the chamber. Four 30 second beats separated by 2 minute temperature equilibration periods in the cold were used to break the mycelia. A crude mitochondrial preparation was harvested from the homogenate by differential centrifugation at 4° C. and resuspended in BSA-free sucrose/EDTA media and used for SDH assays.
The succinate dehydrogenase activity was measured at 600 nm in 50 mM potassium phosphate, pH 7.2, 1 mM KCN, 45 μM 2,6-dichlorophenolindophenol (DCPIP) and 17 mM disodium succinate (final volume, 1 mL) with a Perkin-Elmer Lambda 7 ultraviolet-visible spectrophotometer. The test compounds were added as acetone solutions (final concentration of acetone, 1% (v/v)). The mitochondrial preparatons were used to initiate the reaction. All rates were corrected for endogenous activities minus succinate. Semilog plots of percentage inhibition versus test compound concentration were used to determine inhibition expressed as I50 (μM) which is the concentration required to inhibit the rate of DCPIP reduction by 50%. The commercial fungicide carboxin was used as standard throughout.

Botrytis cinerea [1] = assay: Eggplant grey mold; assay type: in vivo; parameters: scale not given here; conditions: inoculated 24 h later, rated after 3-4 days; for Disease Control Rating at 20 ppm: eggplant sprayed with 20 ppm; for Disease Control Rating at 100 ppm: eggplant sprayed with 100 ppm; for Disease Control Rating at 500 ppm: eggplant sprayed with 500 ppm
Method: Eggplant seed are planted in 2.25" square pots, six per pot, and maintained in growth chambers set at 23° C., 80% humidity, and 12 h photoperiod. When the plants are at the cotyledon stage (14-18 days afterplanting), the plants are sprayed with 1.5 mL/pot of 500, 100 or 20 ppm 2:3 acetone:water (with 0.5% Tween® 20) formulations of the test compounds.
Twenty-four hours later the plants are inoculated with Botrytis cinerea, approximately 0.5 mL/pot of a 4×10^6 spore/mL suspension. The plantes are incubated at 23° C. and 100% humidity for 3-4 days, at which time disease control ratings are made based on presence and severity of Botrytis lesions.

Botrytis cinerea [2] = assay: Vine grey mold (grape berries); assay type: in vivo; conditions: average of six berries, 7-10 days; for pest or weed control at 50 ppm: grape berries treated with 50 ppm, read-out: % DISEASE CONTROL 50 ppm; for pest or weed control at 200 ppm: grape berries treated with 200 ppm, read-out: % DISEASE CONTROL 200 ppm
Method: Grape berries, which have been washed and surfaced sterilized in 70% ethanol for one minute, are, except for the negative controls, treated with 0.2 mL of a 2:3 acetone/water formulation (containing 0.05% Tween® 20) of 200 or 50 ppm of the test compounds and placed one per well in 12-well plates. Six berries per treatment level are used. Twenty-four hours later each berry is inoculated with Botrytis cinerea conidia, 0.2 mL of 10^6 spores/mL suspension. The plates are incubated at 20° C. with a 12 hours photoperiod for 7-10 days and the percent surface area infected with the disease is determined for each replicate using the values of 0, 1, 2, 5, 7, 10, 15, 20, 25, 30, 35, 40, 45, 50, 55, 60, 65, 70, 75, 80, 85, 90, 95, and 100%. Treatment means are calculated and percent disease control is determined by the formula [(control mean - treatment mean)/control means]×100.
Some of the compounds have been tested more than once and the results shown are the average of the number of tests reported.

Rhizoctonia solani = assay: Rice sheath blight; assay type: in vivo; parameters: scale not given here; conditions: inoculated two days later, rated after 7 days, average of five plants; for Disease Control Rating at 0.5 mg/mL: foliage and soil sprayed with 0.5 mg/mL; for Disease Control Rating at 0.02 mg/mL: foliage and soil sprayed with 0.02 mg/mL; for Disease Control Rating at 0.1 mg/mL: foliage and soil sprayed with 0.1 mg/mL
Method: Rice plants, 11 to 15 days old, are grown in 7.65 cm^2 pots. Each plant in the treatment groups is treated by spraying both the foliage and the soil surface, each with 2 mL of a water/acetone/Tween®20 formulation containing 0.5, 0.1, or 0.02 mg/mL of Compound A. The pots are placed in flood trays which are filled with water to just below the soil line. Two days later, approximately two grams of Rhizoctonia solani inoculum, cultured on rice grain for four to eight weeks, is applied to the base of the rice plants in each pot. After 7 days in a 25° C. high humidity growth chamber, each plant is evaluated for the level of disease contro as compared to untreated controls by the following scale and the average of five plants per treatment level is calculated.

T1 sequence (A0A384J5E4 1-300): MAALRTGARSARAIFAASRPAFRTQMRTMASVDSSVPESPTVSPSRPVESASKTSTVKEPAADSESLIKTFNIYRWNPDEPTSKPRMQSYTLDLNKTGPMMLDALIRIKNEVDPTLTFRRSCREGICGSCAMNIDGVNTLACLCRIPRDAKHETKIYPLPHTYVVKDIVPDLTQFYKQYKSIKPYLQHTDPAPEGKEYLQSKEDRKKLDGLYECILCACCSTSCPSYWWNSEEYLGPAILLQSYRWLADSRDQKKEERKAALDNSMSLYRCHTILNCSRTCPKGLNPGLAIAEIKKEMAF
T1 sequence (A0A384J8V8 1-189): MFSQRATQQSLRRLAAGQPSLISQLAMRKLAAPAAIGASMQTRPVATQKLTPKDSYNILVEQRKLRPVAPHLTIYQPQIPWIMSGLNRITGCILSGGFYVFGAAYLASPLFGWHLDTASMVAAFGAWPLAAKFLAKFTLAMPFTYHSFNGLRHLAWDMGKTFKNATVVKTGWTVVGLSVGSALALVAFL
T1 sequence (A0A384JHJ5 1-192): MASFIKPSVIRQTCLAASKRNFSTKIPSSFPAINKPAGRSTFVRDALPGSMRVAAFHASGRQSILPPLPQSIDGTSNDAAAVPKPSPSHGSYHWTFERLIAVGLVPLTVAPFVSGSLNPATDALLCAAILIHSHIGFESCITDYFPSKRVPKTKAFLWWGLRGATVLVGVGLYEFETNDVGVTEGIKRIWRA
T1 sequence (A0A384K456 1-647 partner): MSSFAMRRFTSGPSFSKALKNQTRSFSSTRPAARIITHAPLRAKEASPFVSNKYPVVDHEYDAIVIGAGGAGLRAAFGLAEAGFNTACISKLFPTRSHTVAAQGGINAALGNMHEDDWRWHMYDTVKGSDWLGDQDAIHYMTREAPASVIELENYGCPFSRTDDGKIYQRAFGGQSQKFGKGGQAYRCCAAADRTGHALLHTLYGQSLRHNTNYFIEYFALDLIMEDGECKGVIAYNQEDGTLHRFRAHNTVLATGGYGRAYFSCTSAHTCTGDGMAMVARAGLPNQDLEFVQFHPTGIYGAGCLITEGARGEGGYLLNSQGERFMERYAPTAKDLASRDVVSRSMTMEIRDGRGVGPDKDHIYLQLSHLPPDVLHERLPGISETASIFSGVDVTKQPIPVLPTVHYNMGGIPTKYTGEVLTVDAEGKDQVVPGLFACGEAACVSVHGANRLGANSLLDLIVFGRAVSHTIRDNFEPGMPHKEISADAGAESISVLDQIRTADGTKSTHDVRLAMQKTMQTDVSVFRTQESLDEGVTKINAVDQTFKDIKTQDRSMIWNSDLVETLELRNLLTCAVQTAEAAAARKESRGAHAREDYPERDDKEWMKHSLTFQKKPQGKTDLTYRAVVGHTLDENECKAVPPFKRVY

Row | SMILES | IC50 (succinate dehydrogenase) [µM] | Disease Control Rating at 20 ppm (Botrytis cinerea [1]) | Disease Control Rating at 100 ppm (Botrytis cinerea [1]) | Disease Control Rating at 500 ppm (Botrytis cinerea [1]) | pest or weed control at 50 ppm (Botrytis cinerea [2]) [%] | pest or weed control at 200 ppm (Botrytis cinerea [2]) [%] | Disease Control Rating at 0.5 mg/mL (Rhizoctonia solani) | Disease Control Rating at 0.02 mg/mL (Rhizoctonia solani) | Disease Control Rating at 0.1 mg/mL (Rhizoctonia solani)
1 | Cn1cc(C(=O)Nc2ccccc2[C@@H]2C[C@H]3CC[C@@H]2C3)c(C(F)F)n1 (relative stereo) [Example 26, 1H-pyrazole-4-carboxamide, N-(2-bicyclo[2.2.1]hept-2-ylphenyl)-3-(difluoromethyl)-1-methyl-, exo-] | 0.0017 | 1 | 2 | 1 | 97 | 100 | 1 |  | 
2 | Cn1cc(C(=O)Nc2ccccc2[C@@H]2C[C@H]3CC[C@@H]2C3)c(C(F)(F)F)n1 (relative stereo) [Example 27, 1H-pyrazole-4-carboxamide, N-(2-bicyclo[2.2.1]hept-2-ylphenyl)-1-methyl-3-(trifluoromethyl)-, exo-] | 0.0048 | 0 | 1 | 2 | 80 | 74 | 0 |  | 
3 | Cn1cc(C(=O)Nc2ccccc2[C@@H]2C[C@H]3CC[C@@H]2C3)c(Cl)n1 (relative stereo) [Example 52, 1H-pyrazole-4-carboxamide, N-(2-bicyclo[2.2.1]hept-2-ylphenyl)-3-chloro-1-methyl-, exo-] | 0.049 |  |  | 0 | 19 | 30 | 2 | 0 | 2
4 | Cn1cc(C(=O)Nc2ccccc2[C@@H]2C[C@H]3CC[C@@H]2C3)c(I)n1 (relative stereo) [Example 58, 1H-pyrazole-4-carboxamide, N-(2-bicyclo[2.2.1]hept-2-ylphenyl)-3-iodo-1-methyl-, exo-] | 0.0086 | 0 | 0 | 2 | 51 | 78 | 2 |  | 
5 | Cn1cc(C(=O)Nc2ccccc2[C@@H]2C[C@H]3CC[C@@H]2C3)c(Br)n1 (relative stereo) [Example 65, 1H-pyrazole-4-carboxamide, N-(2-bicyclo[2.2.1]hept-2-ylphenyl)-3-bromo-1-methyl-, exo-] | 0.011 | 0 | 1 | 2 | 47 | 85 | 3 | 2 | 3
6 | C[C@H]1CCC[C@H](c2ccccc2NC(=O)c2cn(C)nc2C(F)(F)F)C1 (relative stereo) [Example 70, 1H-pyrazole-4-carboxamide, 1-methyl-N-[2-(3-methylcyclohexyl)-phenyl]-3-(trifluoromethyl)-, trans-] | 0.012 | 1 | 2 | 3 | 97 | 96 | 0 |  | 
7 | Cc1nn(C)cc1C(=O)Nc1ccccc1[C@@H]1C[C@H]2CC[C@@H]1C2 (relative stereo) [Example 71, 1H-pyrazole-4-carboxamide, N-(2-bicyclo[2.2.1]hept-2-ylphenyl)-1,3-dimethyl-, exo-] | 0.046 |  |  | 0 | 25 | 57 | 3 | 1 | 3
8 | C[C@@H]1CCC[C@@H](C)C1Oc1ccccc1NC(=O)c1cn(C)nc1C(F)(F)F (relative stereo) [Example 75, 1H-pyrazole-4-carboxamide, 1-methyl-N-[2-[(2,6-dimethylcyclohexyl)oxy]phenyl]-3-(trifluoromethyl)-, (1alpha,2alpha,6beta)-] | 0.013 |  |  | 0 | 6 | 0 | 0 |  | 
9 | C[C@@H]1CCC[C@H](c2ccccc2NC(=O)c2cn(C)nc2C(F)(F)F)C1 (relative stereo) [Example 79, 1H-pyrazole-4-carboxamide, 1-methyl-N-[2-(3-methylcyclohexyl)phenyl]-3-(trifluoromethyl)-, cis-] | 0.011 | 0 | 1 | 2 | 69 | 97 | 3 | 3 | 3
10 | Cn1cc(C(=O)Nc2ccccc2O[C@@H]2C[C@H]3CC[C@@H]2C3)c(C(F)F)n1 (relative stereo) [Example 80, 1H-pyrazole-4-carboxamide, N-[2-(bicyclo[2.2.1]hept-2-yloxy)-phenyl]-3-(difluoromethyl)-1-methyl-, exo-] | 0.083 |  |  | 0 | 0 | 0 | 3 | 2 | 3
11 | Cn1cc(C(=O)Nc2ccccc2O[C@@H]2C[C@H]3CC[C@@H]2C3)c(C(F)(F)F)n1 (relative stereo) [Example 81] | 0.38 |  |  | 0 | 0 | 7 | 3 | 3 | 3
12 | Cn1cc(C(=O)Nc2ccccc2O[C@H]2C[C@H]3CC[C@@H]2C3)c(C(F)F)n1 (relative stereo) [Example 82, 1H-pyrazole-4-carboxamide, N-[2-(bicyclo[2.2.1]hept-2-yloxy)-phenyl]-3-(difluoromethyl)-1-methyl-, endo-] | 0.065 |  |  | 0 | 0 | 0 | 3 | 3 | 3
13 | Cn1cc(C(=O)Nc2cc(Br)cc(Br)c2C2CCCCC2)c(C(F)(F)F)n1 [Example 136, 1H-pyrazole-4-carboxamide, N-(3,5-dibromo-2-cyclohexylphenyl)-1-methyl-3-(trifluoromethyl)-] |  | 0 | 0 | 1 | 7 | 0 | 0 |  | 
